Experimental findings from US20220282217A1, “COMPOSITIONS AND METHODS FOR PREPARING T CELL COMPOSITIONS AND USES THEREOF” (priority 2019, published 2022) are described below.

Assay [1] concerns the target HLA-A02.01 (Homo sapiens, UniProt P04439, D140Y/D185E/D98H/E176V/E277Q/G131W/G231S/I119V/I121R/I166T/I218V/L300P/L318F/N151K/N90K/P208A/P217A/Q86G/Q94H/R138H/R169H/T345S). Briefly: Class I MHC peptide binding affinity (displacement of radiolabeled reference peptide). An outline of the steps:
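MHC class I complexes were loaded with a radiolabeled reference peptide, then exposed to test peptides over a range of concentrations for 2 days. Reference peptide still bound to the complexes was quantified by size-exclusion gel filtration.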

The target of assay [2] is T1, HLA-A02.01 (Homo sapiens, UniProt P04439, D140Y/D185E/D98H/E176V/E277Q/G131W/G231S/I119V/I121R/I166T/I218V/N151K/N90K/P208A/P217A/Q86G/Q94H/R138H/R169H).
T1 construct: made in house; host or cells: E. coli
In words: Class I MHC peptide binding stability (pMHC-I dissociation, 125I-labeled light chain). The conditions noted are these: for Stability (T1/2 (h)): allele A02.01.

[3] abbreviates: allele A02.01, read-out: Observed Affinity (IC50, (nM)).

pKd: −log10 of the molar value. Like-named read-outs stand apart in the source and are kept apart here. Where a SMILES comes first, the peptide text is derived from it.

As a reminder, the IC50 is the concentration that inhibits the measured activity by half. Take `CC(C)C[C@H](NC(=O)[C@@H](N)CC(C)C)C(=O)N[C@@H](C)C(=O)N[C@@H](Cc1ccccc1)C(=O)N[C@@H](Cc1c[nH]c2ccccc12)C(=O)N[C@@H](CC(=O)O)C(=O)N[C@@H](CO)C(=O)N[C@@H](CCC(N)=O)C(=O)N[C@H](C(=O)O)C(C)C` (H-LLAFWDSQV-OH; N-terminus and C-terminus assumed): the IC50 on HLA-A02.01 [1] (setting [3]) was 68 nM. Also, the “Stability (T1/2 (h))” value on HLA-A02.01 [2] is on record as 12.8 h.
For the compound `CC(C)C[C@H](N)C(=O)N[C@H](C(=O)N[C@H](C(=O)N[C@H](C(=O)NCC(=O)N[C@@H](C)C(=O)N[C@@H](CC(=O)O)C(=O)NCC(=O)N[C@H](C(=O)O)C(C)C)C(C)C)C(C)C)C(C)C` (H-LVVVGADGV-OH; N-terminus and C-terminus assumed), the half-inhibitory concentration (IC50) at HLA-A02.01 [1] (Measured Affinity (nM), HLA Allele A02.01) stood at 977 nM; on HLA-A02.01 [1] (Observed Affinity (IC50, (nM)), allele A02.01), 1190 nM. At HLA-A02.01 [2] (HLA Allele A02.01, time for half of the complexes to dissociate at 37° C.), the “Measured stability” value came out at 0.0 h.
Consider `CSCC[C@H](NC(=O)[C@H](CC(C)C)NC(=O)[C@H](CCC(=O)O)NC(=O)[C@H](CCSC)NC(=O)[C@@H](N)CC(C)C)C(=O)N[C@@H](C)C(=O)NCC(=O)NCC(=O)N[C@@H](CC(=O)O)C(=O)N[C@@H](CC(C)C)C(=O)O` (H-LMELMAGGDL-OH; N-terminus and C-terminus assumed), for which the IC50 at HLA-A02.01 [1] (setting [3]) turned out to be 311 nM. Besides, at HLA-A02.01 [2], the “Stability (T1/2 (h))” value was found to be 8.9 h.
For `CC[C@H](C)[C@H](NC(=O)[C@H](Cc1ccc(O)cc1)NC(=O)[C@H](CC(C)C)NC(=O)[C@@H](N)CC(C)C)C(=O)N[C@H](C(=O)N[C@@H](C)C(=O)N[C@@H](Cc1ccccc1)C(=O)N[C@@H](Cc1ccccc1)C(=O)N[C@@H](CC(C)C)C(=O)O)[C@@H](C)O` the same measures were 713 nM and 17 h.
In the case of `CC[C@H](C)[C@H](NC(=O)[C@H](Cc1ccc(O)cc1)NC(=O)[C@H](CC(C)C)NC(=O)[C@@H](N)CO)C(=O)N[C@H](C(=O)NCC(=O)N[C@@H](Cc1ccccc1)C(=O)N[C@@H](Cc1ccc(O)cc1)C(=O)NCC(=O)N[C@@H](C)C(=O)O)C(C)C` (H-SLYIVGFYGA-OH; N-terminus and C-terminus assumed), the IC50 on HLA-A02.01 [1] (setting [3]) came to 390 nM. The “Stability (T1/2 (h))” value on HLA-A02.01 [2] is on record as 0.4 h.
For the compound LQMDFLVEIPA, the half-inhibitory concentration (IC50) at HLA-A02.01 [1] (setting [3]) was 68 nM. Besides, at HLA-A02.01 [2], the “Stability (T1/2 (h))” value amounted to 1.5 h.
As for `CC(C)[C@H](NC(=O)[C@H](CO)NC(=O)[C@H](Cc1ccccc1)NC(=O)[C@H](Cc1ccccc1)NC(=O)[C@H](Cc1ccccc1)NC(=O)[C@H](Cc1ccccc1)NC(=O)[C@H](CS)NC(=O)[C@@H](NC(=O)[C@@H](N)CO)C(C)C)C(=O)O`, the half-inhibitory concentration (IC50) at HLA-A02.01 [1] (setting [3]) turned out to be 175 nM. The “Stability (T1/2 (h))” value on HLA-A02.01 [2] was 9.4 h.
For `CSCC[C@H](NC(=O)[C@H](CCC(=O)O)NC(=O)[C@H](CC(C)C)NC(=O)[C@H](CC(C)C)NC(=O)[C@H](CC(C)C)NC(=O)[C@H](CC(=O)O)NC(=O)[C@H](CO)NC(=O)[C@H](CC(C)C)NC(=O)[C@@H]1CCCN1)C(=O)O` (H-PLSDLLLEM-OH; N-terminus and C-terminus assumed) the same measures were 404 nM and 2.7 h.
For `CC(C)C[C@H](NC(=O)[C@H](Cc1ccccc1)NC(=O)[C@@H](NC(=O)[C@H](Cc1ccc(O)cc1)NC(=O)[C@@H](NC(=O)CN)C(C)C)[C@@H](C)O)C(=O)N1CCC[C@H]1C(=O)N[C@@H](CO)C(=O)N[C@H](C(=O)O)[C@@H](C)O` (H-GVYTFLPST-OH; N-terminus and C-terminus assumed), the IC50 on HLA-A02.01 [1] (setting [3]) worked out at 779 nM. Besides, at HLA-A02.01 [2], the “Stability (T1/2 (h))” value is given as 1.3 h.
For the compound `CC[C@H](C)[C@H](NC(=O)[C@@H](N)CC(C)C)C(=O)N[C@@H](CCSC)C(=O)N[C@@H](CCC(N)=O)C(=O)N[C@@H](CC(C)C)C(=O)N[C@@H](CCSC)C(=O)N1CCC[C@H]1C(=O)N[C@@H](Cc1ccccc1)C(=O)NCC(=O)N[C@@H](CS)C(=O)O`, the pKd on HLA-A02.01 [1] (EGFR T790M peptides, HLA allele A02.01, read-out: Affinity) is 6.88. The IC50 at HLA-A02.01 [1] (setting [3]) came to 177 nM. Further, the “Stability (half-life (hr.))” value at HLA-A02.01 [2] (EGFR T790M peptides, HLA allele A02.01) turned out to be 0.3813 h. Moreover, on HLA-A02.01 [2], the “Stability (T1/2 (h))” value is 0.4 h.
